Measured values reported in ChEMBL document CHEMBL1159368, “Phenolic compounds from Nymphaea odorata” (J Nat Prod, 2003).
In brackets after ≈: the same amount, converted by molar mass.

Experiment: Inhibition of Saccharomyces cerevisiae FAS

Row | IC50 [µg/mL] | SMILES
1 | 25 (≈ 52 µM) | O=c1c(O[C@@H]2O[C@H](CO)[C@H](O)[C@H](O)[C@H]2O)c(-c2cc(O)c(O)c(O)c2)oc2cc(O)cc(O)c12
2 | 0.19 (≈ 0.851 µM) | C/C=C/C/C=C/CCC(=O)[C@H]1O[C@H]1C(N)=O [CERULENIN]
3 | 45 (≈ 104 µM) | C[C@@H]1O[C@@H](Oc2c(-c3ccc(O)cc3)oc3cc(O)cc(O)c3c2=O)[C@H](O)[C@H](O)[C@H]1O [AFZELIN]

Row | SMILES | IC50 [µg/mL]
4 | C[C@@H]1O[C@@H](Oc2c(-c3ccc(O)c(O)c3)oc3cc(O)cc(O)c3c2=O)[C@H](O)[C@H](O)[C@H]1O [QUERCITRIN] | 50 (≈ 112 µM)
